Measured values as given in patent publication US9493455B2, “Azaindole derivatives as inhibitors of protein kinases” (ORIBASE PHARMA, priority 2012, dated 2016).

Experiments:
ABL = biological target: T1, ABL (Homo sapiens, UniProt P00519); test: In vitro kinase assay (Z′-LYTE); assay type: biochemical; settings: read-out: % of inhibition of the kinase compared to the control
T1 construct: purchased Invitrogen
Experimental: (§1) The inhibitory activity of the compounds on several kinases including BRAF, EGFR (ErbB1), EGFR (ErbB1) T790M L858R, FGFR2, KDR (VEGFR2), PDGFRA (PDGFR alpha), SRC and other was evaluated by Invitrogen using the Z′-LYTE® technology. Briefly, the Z′-LYTE® biochemical assay employs a fluorescence-based, coupled-enzyme format and is based on the differential sensitivity of phosphorylated and non-phosphorylated peptides to proteolytic cleavage. The peptide substrate is labeled with two fluorophores—one at each end—that make up a FRET pair. A ratiometric method, which calculates the ratio (the Emission Ratio) of donor emission to acceptor emission after excitation of the donor fluorophore at 400 nm, is used to quantitate reaction progress.
(§2) The compounds are screened in 1% DMSO (final) in the well. For 10 point titrations, 3-fold serial dilutions are conducted from the starting concentration. All Peptide/Kinase Mixtures are diluted to a 2× working concentration in the appropriate Kinase Buffer. All ATP Solutions are diluted to a 4× working concentration in Kinase Buffer (50 mM HEPES pH 7.5, 0.01% BRIJ-35, 10 mM MgCl2, 1 mM EGTA). ATP Km apparent is previously determined using a Z′-LYTE® assay.
(§3) Each compound was incubated at a concentration of 100 nM (excepted to test the activity against ABL and ABL T315I for which the compounds were incubated at a concentration of 10 μM) and the tables B1 to B12 summarize the results obtained showing the inhibitory power of a compound. The inhibitory activity of OR0512 was also investigated using the same assays and the kinases for which activity was inhibited at more than 50% at the concentration of 100 nM of OR0512 are listed in the table B13.

ABL T315I = biological target: T2, ABL T315I (Homo sapiens, UniProt P00519, T315I); test: In vitro kinase assay (Z′-LYTE); assay type: biochemical; settings: read-out: % of inhibition of the kinase compared to the control
T2 construct: purchased Invitrogen
Experimental: as §1, §2, §3

BRAF = biological target: T3, BRAF (Homo sapiens, UniProt P15056); test: In vitro kinase assay (Z′-LYTE); assay type: biochemical; settings: compound 100 nM; ATP 100 μM; read-out: % of inhibition of the kinase compared to the control
T3 construct: purchased Invitrogen
Experimental: as §1, §2, §3

EGFR (ErbB1) = biological target: T4, EGFR (ErbB1) (Homo sapiens, UniProt P00533); test: In vitro kinase assay (Z′-LYTE); assay type: biochemical; settings: read-out: % of inhibition of the kinase compared to the control
T4 construct: purchased Invitrogen
T4 sequence (P00533 25-1210): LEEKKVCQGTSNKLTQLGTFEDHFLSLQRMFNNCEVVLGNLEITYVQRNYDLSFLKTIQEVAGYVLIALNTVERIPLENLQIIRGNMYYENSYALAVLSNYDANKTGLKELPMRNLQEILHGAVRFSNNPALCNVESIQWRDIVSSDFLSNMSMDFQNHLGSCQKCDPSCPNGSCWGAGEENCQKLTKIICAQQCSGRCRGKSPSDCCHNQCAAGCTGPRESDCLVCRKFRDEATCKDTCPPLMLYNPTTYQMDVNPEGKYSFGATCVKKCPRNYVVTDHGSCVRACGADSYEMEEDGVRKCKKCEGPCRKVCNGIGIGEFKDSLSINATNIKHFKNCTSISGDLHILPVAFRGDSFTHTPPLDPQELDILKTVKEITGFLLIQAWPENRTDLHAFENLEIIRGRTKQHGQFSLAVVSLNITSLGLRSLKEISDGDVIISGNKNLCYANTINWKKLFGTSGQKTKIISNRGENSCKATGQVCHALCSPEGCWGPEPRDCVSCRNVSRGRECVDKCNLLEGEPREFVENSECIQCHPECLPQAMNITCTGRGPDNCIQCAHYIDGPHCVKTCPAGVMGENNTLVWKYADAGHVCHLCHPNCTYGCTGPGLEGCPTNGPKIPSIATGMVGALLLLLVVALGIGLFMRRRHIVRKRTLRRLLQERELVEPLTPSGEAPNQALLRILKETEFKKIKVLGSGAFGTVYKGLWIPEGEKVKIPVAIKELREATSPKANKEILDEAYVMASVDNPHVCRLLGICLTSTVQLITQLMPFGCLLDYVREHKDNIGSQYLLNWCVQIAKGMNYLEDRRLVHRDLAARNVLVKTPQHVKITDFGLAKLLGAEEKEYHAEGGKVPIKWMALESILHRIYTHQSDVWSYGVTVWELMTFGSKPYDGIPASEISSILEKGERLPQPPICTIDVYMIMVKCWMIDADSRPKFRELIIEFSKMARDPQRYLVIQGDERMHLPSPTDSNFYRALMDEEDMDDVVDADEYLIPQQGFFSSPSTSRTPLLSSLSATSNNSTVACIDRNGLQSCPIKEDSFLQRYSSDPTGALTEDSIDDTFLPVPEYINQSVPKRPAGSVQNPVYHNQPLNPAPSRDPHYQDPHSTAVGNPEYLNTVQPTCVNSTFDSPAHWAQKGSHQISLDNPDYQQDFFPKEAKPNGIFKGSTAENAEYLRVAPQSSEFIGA
Experimental: as §1, §2, §3

EGFR (ErbB1) T790M L858R = biological target: T5, EGFR (ErbB1) T790M L858R (Homo sapiens, UniProt P00533, L858R/T790M); test: In vitro kinase assay (Z′-LYTE); assay type: biochemical; settings: read-out: % of inhibition of the kinase compared to the control
T5 construct: purchased Invitrogen
Experimental: as §1, §2, §3

FGFR1 = biological target: T6, FGFR1 (Homo sapiens, UniProt P11362); test: In vitro kinase assay (Z′-LYTE); assay type: biochemical; settings: read-out: % of inhibition of the kinase compared to the control
T6 construct: purchased Invitrogen
Experimental: as §1, §2, §3

FGFR2 = biological target: T7, FGFR2 (Homo sapiens, UniProt P21802); test: In vitro kinase assay (Z′-LYTE); assay type: biochemical; settings: read-out: % of inhibition of the kinase compared to the control
T7 construct: purchased Invitrogen
T7 sequence (P21802 22-821): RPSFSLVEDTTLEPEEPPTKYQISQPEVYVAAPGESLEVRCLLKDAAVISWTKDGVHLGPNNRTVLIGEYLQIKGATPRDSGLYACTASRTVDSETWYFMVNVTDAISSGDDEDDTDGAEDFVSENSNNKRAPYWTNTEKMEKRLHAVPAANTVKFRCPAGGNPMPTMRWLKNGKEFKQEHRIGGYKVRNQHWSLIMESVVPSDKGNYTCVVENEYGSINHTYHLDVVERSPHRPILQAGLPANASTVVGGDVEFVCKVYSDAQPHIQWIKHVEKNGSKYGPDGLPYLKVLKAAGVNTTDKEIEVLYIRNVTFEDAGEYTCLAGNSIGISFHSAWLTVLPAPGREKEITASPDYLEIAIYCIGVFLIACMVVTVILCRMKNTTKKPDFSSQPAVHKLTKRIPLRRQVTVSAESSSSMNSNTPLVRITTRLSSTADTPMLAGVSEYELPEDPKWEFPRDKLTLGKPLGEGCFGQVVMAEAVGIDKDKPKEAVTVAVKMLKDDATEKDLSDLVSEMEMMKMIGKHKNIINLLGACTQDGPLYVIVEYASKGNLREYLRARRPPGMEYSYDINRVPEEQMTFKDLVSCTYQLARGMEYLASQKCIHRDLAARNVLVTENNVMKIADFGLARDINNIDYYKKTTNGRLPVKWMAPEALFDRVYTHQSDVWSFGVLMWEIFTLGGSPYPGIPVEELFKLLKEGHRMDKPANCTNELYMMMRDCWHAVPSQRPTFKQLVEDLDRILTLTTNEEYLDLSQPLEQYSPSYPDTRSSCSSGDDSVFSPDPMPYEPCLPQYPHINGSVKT
Experimental: as §1, §2, §3

KDR (VEGFR2) = biological target: T8, KDR (VEGFR2) (Homo sapiens, UniProt P35968); test: In vitro kinase assay (Z′-LYTE); assay type: biochemical; settings: read-out: % of inhibition of the kinase compared to the control
T8 construct: purchased Invitrogen
T8 sequence (P35968 20-1356): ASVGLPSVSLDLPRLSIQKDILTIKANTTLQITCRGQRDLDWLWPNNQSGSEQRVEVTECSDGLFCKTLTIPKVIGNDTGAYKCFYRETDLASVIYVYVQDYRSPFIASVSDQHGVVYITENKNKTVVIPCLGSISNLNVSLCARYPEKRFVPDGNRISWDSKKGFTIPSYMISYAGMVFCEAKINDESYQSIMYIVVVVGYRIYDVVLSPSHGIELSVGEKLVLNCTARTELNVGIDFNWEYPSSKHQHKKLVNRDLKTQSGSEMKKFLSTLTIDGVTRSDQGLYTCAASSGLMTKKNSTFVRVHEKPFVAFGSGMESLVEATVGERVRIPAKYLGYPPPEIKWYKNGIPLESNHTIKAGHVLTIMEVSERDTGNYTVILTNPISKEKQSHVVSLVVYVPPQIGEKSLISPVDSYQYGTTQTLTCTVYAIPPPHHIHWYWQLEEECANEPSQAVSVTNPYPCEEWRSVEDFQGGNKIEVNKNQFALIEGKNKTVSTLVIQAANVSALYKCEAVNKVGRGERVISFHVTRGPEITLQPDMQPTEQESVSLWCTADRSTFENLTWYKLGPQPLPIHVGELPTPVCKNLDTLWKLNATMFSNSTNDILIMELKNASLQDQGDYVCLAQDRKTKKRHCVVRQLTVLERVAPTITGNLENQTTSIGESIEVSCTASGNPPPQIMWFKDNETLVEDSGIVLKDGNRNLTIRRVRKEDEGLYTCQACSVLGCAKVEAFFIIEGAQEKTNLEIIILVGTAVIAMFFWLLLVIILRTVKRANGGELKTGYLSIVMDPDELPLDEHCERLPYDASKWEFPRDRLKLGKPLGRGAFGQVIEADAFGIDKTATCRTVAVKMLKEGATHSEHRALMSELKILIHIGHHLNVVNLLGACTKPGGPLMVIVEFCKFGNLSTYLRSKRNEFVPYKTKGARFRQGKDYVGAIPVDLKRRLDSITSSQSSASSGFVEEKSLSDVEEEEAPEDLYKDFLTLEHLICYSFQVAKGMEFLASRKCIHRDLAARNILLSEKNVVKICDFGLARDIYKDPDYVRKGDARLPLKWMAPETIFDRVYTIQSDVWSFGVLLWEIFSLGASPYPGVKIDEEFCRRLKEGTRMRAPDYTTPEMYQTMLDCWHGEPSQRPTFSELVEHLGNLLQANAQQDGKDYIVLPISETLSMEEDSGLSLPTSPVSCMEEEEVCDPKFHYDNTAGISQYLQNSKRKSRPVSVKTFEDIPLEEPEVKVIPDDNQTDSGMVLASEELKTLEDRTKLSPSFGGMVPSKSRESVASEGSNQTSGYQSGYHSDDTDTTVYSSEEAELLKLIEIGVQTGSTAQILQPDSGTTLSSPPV
Experimental: as §1, §2, §3

PDGFRA (PDGFR alpha) = biological target: T9, PDGFRA (PDGFR alpha) (Homo sapiens, UniProt P16234); test: In vitro kinase assay (Z′-LYTE); assay type: biochemical; settings: read-out: % of inhibition of the kinase compared to the control
T9 construct: purchased Invitrogen
T9 sequence (P16234 24-1089): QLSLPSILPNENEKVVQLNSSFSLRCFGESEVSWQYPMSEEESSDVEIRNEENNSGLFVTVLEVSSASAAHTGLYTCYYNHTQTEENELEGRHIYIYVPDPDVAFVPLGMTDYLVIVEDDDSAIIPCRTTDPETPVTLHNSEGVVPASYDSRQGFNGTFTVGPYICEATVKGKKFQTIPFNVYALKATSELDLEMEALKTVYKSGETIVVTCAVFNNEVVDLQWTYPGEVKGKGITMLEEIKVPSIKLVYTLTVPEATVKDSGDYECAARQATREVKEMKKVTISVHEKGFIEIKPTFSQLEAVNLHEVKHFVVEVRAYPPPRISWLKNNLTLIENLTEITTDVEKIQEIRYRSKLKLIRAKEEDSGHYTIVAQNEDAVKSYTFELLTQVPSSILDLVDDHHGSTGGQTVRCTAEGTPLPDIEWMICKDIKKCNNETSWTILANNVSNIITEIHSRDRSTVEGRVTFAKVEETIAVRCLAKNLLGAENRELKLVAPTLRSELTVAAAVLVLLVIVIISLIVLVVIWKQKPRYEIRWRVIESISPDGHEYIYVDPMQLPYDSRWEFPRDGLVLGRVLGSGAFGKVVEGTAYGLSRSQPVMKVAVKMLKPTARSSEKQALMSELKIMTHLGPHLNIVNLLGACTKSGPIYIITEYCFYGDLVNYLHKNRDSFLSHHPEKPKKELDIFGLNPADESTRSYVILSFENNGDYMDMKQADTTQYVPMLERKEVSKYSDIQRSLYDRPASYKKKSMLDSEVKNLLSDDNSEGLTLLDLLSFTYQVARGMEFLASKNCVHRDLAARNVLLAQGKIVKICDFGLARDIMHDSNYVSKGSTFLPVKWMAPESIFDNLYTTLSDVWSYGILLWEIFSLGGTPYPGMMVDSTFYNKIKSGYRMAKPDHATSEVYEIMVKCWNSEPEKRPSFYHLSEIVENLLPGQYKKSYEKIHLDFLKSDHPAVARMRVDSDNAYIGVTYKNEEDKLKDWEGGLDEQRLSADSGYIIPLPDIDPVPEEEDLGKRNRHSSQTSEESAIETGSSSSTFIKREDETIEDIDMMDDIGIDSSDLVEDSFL
Experimental: as §1, §2, §3

PDGFRB = biological target: T10, PDGFRB (Homo sapiens, UniProt P09619); test: In vitro kinase assay (Z′-LYTE); assay type: biochemical; settings: read-out: % of inhibition of the kinase compared to the control
T10 construct: purchased Invitrogen
Experimental: as §1, §2, §3

SRC = biological target: T11, SRC (Homo sapiens, UniProt P12931); test: In vitro kinase assay (Z′-LYTE); assay type: biochemical; settings: read-out: % of inhibition of the kinase compared to the control
T11 construct: purchased Invitrogen
T11 sequence (P12931 whole entry): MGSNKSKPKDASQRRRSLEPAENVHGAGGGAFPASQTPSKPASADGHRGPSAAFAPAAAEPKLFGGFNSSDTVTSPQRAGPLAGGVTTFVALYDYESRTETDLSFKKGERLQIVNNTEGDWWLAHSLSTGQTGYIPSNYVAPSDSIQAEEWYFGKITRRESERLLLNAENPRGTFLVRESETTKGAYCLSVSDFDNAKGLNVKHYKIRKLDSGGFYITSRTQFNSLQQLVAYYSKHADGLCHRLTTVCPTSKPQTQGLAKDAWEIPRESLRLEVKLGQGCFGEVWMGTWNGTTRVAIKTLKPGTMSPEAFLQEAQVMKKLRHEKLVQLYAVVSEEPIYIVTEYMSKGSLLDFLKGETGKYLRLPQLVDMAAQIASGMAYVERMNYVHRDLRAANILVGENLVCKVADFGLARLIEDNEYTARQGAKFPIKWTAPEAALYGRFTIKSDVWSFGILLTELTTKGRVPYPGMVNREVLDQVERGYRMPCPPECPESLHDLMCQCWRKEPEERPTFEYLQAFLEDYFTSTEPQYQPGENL
Experimental: as §1, §2, §3

VEGFR1 = biological target: T12, VEGFR1 (Homo sapiens, UniProt P17948); test: In vitro kinase assay (Z′-LYTE); assay type: biochemical; settings: read-out: % of inhibition of the kinase compared to the control
T12 construct: purchased Invitrogen
Experimental: as §1, §2, §3

A549 = test: In vitro cell proliferation assay (MTT); assay type: cell-based; settings: Homo sapiens, A549, 72 h
Experimental: (§4) Cancer cell lines (5×10^3 cells per well) or HUVEC (1×10^4 cells per well) or HRMEC (1×10^4 cells per well) were distributed in 96-well plates and incubating in duplicate with escalating concentrations (10 nM to 3 μM) of compounds for 72 hr. Cell proliferation was measured using MTT (3 [4,5-dimethylthiazol-2-yl]-2,5-diphenyltetrazolium bromide).

BxPC-3 = test: In vitro cell proliferation assay (MTT); assay type: cell-based; settings: Homo sapiens, BXPC-3, 72 h
Experimental: as §4

H1975 = test: In vitro cell proliferation assay (MTT); assay type: cell-based; settings: Homo sapiens, NCI-H1975, 72 h
Experimental: as §4

HT29 = test: In vitro cell proliferation assay (MTT); assay type: cell-based; settings: Homo sapiens, HT-29, 72 h
Experimental: as §4

HUVEC = test: In vitro cell proliferation assay (MTT); assay type: cell-based; settings: Homo sapiens, 72 h
Experimental: as §4

HepG2 = test: In vitro cell proliferation assay (MTT); assay type: cell-based; settings: Homo sapiens, HepG2, 72 h
Experimental: as §4

HuH7 = test: In vitro cell proliferation assay (MTT); assay type: cell-based; settings: Homo sapiens, Huh-7, 72 h
Experimental: as §4

| Compound | inhibition at 10 µM (ABL) [%] | inhibition at 10 µM (ABL T315I) [%] | inhibition at 0.1 µM (BRAF) [%] | inhibition at 0.1 µM (EGFR (ErbB1)) [%] | inhibition at 0.1 µM (EGFR (ErbB1) T790M L858R) [%] | inhibition at 0.1 µM (FGFR1) [%] | inhibition at 0.1 µM (FGFR2) [%] | inhibition at 0.1 µM (KDR (VEGFR2)) [%] | inhibition at 0.1 µM (PDGFRA (PDGFR alpha)) [%] | inhibition at 0.1 µM (PDGFRB) [%] | inhibition at 0.1 µM (SRC) [%] | inhibition at 0.1 µM (VEGFR1) [%] | EC50 (A549) [nM] | EC50 (BxPC-3) [nM] | EC50 (H1975) [nM] | EC50 (HT29) [nM] | EC50 (HUVEC) [nM] | EC50 (HepG2) [nM] | EC50 (HuH7) [nM] |
| --- | --- | --- | --- | --- | --- | --- | --- | --- | --- | --- | --- | --- | --- | --- | --- | --- | --- | --- | --- |
| COC(=O)c1cc2cc(NCc3ccc(C)c(NC(=O)c4ccc(CN5CCN(C)CC5)c(C(F)(F)F)c4)c3)cnc2[nH]1 [OR0622] | ≥ 50 | ≥ 50 | < 50 | < 50 | < 50 | ≥ 50 | ≥ 50 | ≥ 50 | ≥ 50 | < 50 | ≥ 50 | < 50 | ≥ 1000 | ≥ 1000 | ≥ 1000 | ≥ 1000 | 100 to 1000 | ≥ 1000 | – |
| COC(=O)c1cc2cc(NCc3cc(NC(=O)c4ccnc(C(F)(F)F)c4)ccc3C)cnc2[nH]1 [OR0866] | – | – | < 50 | < 50 | – | – | < 50 | < 50 | < 50 | – | – | – | – | – | – | – | 100 to 1000 | 100 to 1000 | ≥ 1000 |
| COC(=O)c1cc2cc(NCc3cc(NC(=O)c4ccc(Cl)c(C(F)(F)F)c4)ccc3C)cnc2[nH]1 [OR0871] | – | – | < 50 | ≥ 50 | – | – | < 50 | < 50 | ≥ 50 | – | ≥ 50 | – | – | – | – | – | 100 to 1000 | 100 to 1000 | 100 to 1000 |
| COC(=O)c1cc2cc(NCc3cc(NC(=O)C4CCC(C(F)(F)F)CC4)ccc3C)cnc2[nH]1 (centres unmarked) [OR0612] | ≥ 50 | < 50 | < 50 | < 50 | < 50 | < 50 | < 50 | < 50 | ≥ 50 | < 50 | ≥ 50 | < 50 | 100 to 1000 | 100 to 1000 | ≥ 1000 | ≥ 1000 | 100 to 1000 | 100 to 1000 | – |
| COC(=O)c1cc2cc(NCc3cc(NC(=O)c4ccnc(C)c4)ccc3C)cnc2[nH]1 [OR0868] | – | – | ≥ 50 | < 50 | – | – | < 50 | < 50 | – | – | – | – | – | – | – | – | 100 to 1000 | ≥ 1000 | ≥ 1000 |
| COC(=O)c1cc2cc(NCc3cc(NS(=O)(=O)c4cccc(C(F)(F)F)c4)ccc3C)cnc2[nH]1 [OR0882] | – | – | < 50 | < 50 | – | – | < 50 | < 50 | < 50 | – | – | – | – | – | – | – | ≥ 1000 | ≥ 1000 | ≥ 1000 |
| COC(=O)c1cc2cc(NCc3cc(NC(=O)c4ccc(C)c(C(F)(F)F)c4)ccc3C)cnc2[nH]1 [OR0869] | – | – | < 50 | ≥ 50 | – | – | < 50 | < 50 | < 50 | – | ≥ 50 | – | – | – | – | – | 100 to 1000 | ≥ 1000 | 100 to 1000 |
